Patent US20260201008A1, “SECRETIN-DERIVED GLP1R SELECTIVE AGONISTS” (GUBRA A/S, priority 2023, published 2026)
Read-outs that look alike come from different tables or passages of the source. Numbered stars: 1 amine (or outer) side, 2 acyl side, 3 side chain; on linkers, the order of the positions; unused ones are H or OH. Square brackets hold non-standard residues; d marks the D form. Side chains are listed from the residue outwards. Peptide text beside a SMILES is read from it. * marks the point of attachment. C20 diacid = O=C(O)CCCCCCCCCCCCCCCCCCC(=O)*; γGlu = O=C(O)[C@H](CCC(=O)[*:2])N[*:1]; AEEA = NCCOCCOCC(=O)O; Aib = CC(C)(N)C(=O)O

Legend:
GLP1R = GLP1R (Homo sapiens, UniProt P43220); test: hGLP1R potency, cAMP accumulation in CHO-K1 cells stably overexpressing hGLP1R; assay type: cell-based; set-up: host or cells: CHO-K1; conditions: for Selectivity: SCTR EC50/GLP1R EC50 ratio; for EC50: cAMP accumulation; for SCTR EC50/GLP1R EC50 ratio: cAMP accumulation in CHO-K1 cells
GLP1R, sequence (P43220 24-463): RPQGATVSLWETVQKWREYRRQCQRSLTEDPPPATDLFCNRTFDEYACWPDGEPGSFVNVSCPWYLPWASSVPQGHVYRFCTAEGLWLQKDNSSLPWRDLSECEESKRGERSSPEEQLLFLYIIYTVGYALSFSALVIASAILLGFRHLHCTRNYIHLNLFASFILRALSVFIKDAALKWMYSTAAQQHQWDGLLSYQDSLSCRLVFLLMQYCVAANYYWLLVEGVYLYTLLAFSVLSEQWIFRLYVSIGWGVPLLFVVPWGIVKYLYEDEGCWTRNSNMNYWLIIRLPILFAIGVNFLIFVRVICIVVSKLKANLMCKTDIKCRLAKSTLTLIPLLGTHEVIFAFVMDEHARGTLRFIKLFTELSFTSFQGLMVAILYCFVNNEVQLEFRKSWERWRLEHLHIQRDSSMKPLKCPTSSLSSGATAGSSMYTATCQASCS
Procedure, shortened: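 EC50 derives from variable-slope nonlinear regression of cAMP HTRF signal, with purified peptides tested as 11 three-fold dilutions in duplicate. Assay: hGLP1R-overexpressing CHO-K1 cells, 0.5 mM IBMX, 0.05% casein in DPBS, 30 min room-temperature stimulation, GLP-1(7-36) as reference agonist.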

[1] = Turbidity of crude library peptides (absorbance at 600 nm); assay type: physicochemical; conditions: Physical stability of peptides
Procedure, shortened: (§1)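 Turbidity is the absorbance at 600 nm, taken before heating. Fibril signal is the mean ThT emission at 480 nm (450 nm excitation), read every 10 min over 72 h at 40° C with 700 rpm shaking between reads. Peptides at 267 μM, pH 4.0 acetate or pH 7.0 phosphate buffer (50 mM), 4 μM ThT final.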

[2] = Fibril formation of crude library peptides (Thioflavin T); assay type: physicochemical; set-up: key: average ThT fluorescence emission at 480 nm (ex 450 nm), raw units; conditions: Physical stability of peptides
Procedure, shortened: as §1

SCTR = SCTR (Homo sapiens, UniProt P47872); test: hSCTR potency, cAMP accumulation in CHO-K1 cells stably overexpressing hSCTR; assay type: cell-based; set-up: alternatively Euroscreen ES-712-AF; FAST-0161L; host or cells: CHO-K1; conditions: cAMP accumulation
SCTR, sequence (P47872 23-440): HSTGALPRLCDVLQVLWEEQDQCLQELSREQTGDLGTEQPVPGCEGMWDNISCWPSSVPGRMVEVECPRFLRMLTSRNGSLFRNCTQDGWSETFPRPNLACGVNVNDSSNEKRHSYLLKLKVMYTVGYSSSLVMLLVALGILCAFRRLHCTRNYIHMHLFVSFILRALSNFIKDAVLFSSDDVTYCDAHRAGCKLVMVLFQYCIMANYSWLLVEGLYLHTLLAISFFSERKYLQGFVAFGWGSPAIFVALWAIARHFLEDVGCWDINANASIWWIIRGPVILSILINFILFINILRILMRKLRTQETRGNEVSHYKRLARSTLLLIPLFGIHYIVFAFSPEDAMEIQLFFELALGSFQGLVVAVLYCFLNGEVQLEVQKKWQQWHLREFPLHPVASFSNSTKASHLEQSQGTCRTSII
Procedure, shortened: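 EC50 derived from variable-slope nonlinear regression on 11-point, 3-fold series run in duplicate (crude peptides: 5 points, 10-fold, n=1). Compound stimulation lasted 30 min at room temperature in casein/IBMX-containing DPBS (0.05%, 0.5 mM), 2000 cells/well; cAMP detected by time-resolved FRET after one hour.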

[3] = CHO-K1 cells overexpressing hGLP1R, read-out: pEC50 hGLPR1 (converted)
[4] = CHO-K1 cells overexpressing hSCTR, read-out: pEC50 hSCTR (converted)
[5] = CHO-K1 cells overexpressing hGLP1R, read-out: hGLP1R pEC50 (converted)
[6] = selectivity for hGLP1R over hSCTR
[7] = CHO-K1 cells overexpressing hSCTR, read-out: hSCTR pEC50 (converted)

| SMILES | Selectivity (GLP1R) | EC50 (GLP1R; [3]) | Turbidity (pH 7) [1] | Fibril formation [2] | EC50 (SCTR; [4]) | EC50 (GLP1R; [5]) | SCTR EC50/GLP1R EC50 ratio (GLP1R; [6]) | EC50 (SCTR; [7]) | EC50 (GLP1R; CHO-K1 cells stably overexpressing hGLP1R, read-out: hGLP1R potency (pEC50) (converted)) | SCTR EC50/GLP1R EC50 ratio (GLP1R; selectivity ratio, hSCTR vs hGLP1R) | EC50 (SCTR; CHO-K1 cells stably overexpressing hSCTR, read-out: hSCTR potency (pEC50) (converted)) |
| --- | --- | --- | --- | --- | --- | --- | --- | --- | --- | --- | --- |
| CC(C)C[C@H](NC(=O)[C@H](Cc1ccccc1)NC(=O)[C@H](CCCNC(=N)N)NC(=O)[C@H](CCC(N)=O)NC(=O)[C@H](CCC(N)=O)NC(=O)[C@H](C)NC(=O)[C@H](C)NC(=O)[C@H](Cc1ccccc1)NC(=O)[C@H](CCC(=O)O)NC(=O)[C@H](CCCCNC(=O)COCCOCCNC(=O)COCCOCCNC(=O)CC[C@H](NC(=O)CCCCCCCCCCCCCCCCCCC(=O)O)C(=O)O)NC(=O)[C@H](CC(C)C)NC(=O)[C@H](Cc1ccc(O)cc1)NC(=O)[C@H](CO)NC(=O)[C@@H](NC(=O)[C@H](CC(=O)O)NC(=O)[C@H](CO)NC(=O)[C@@H](NC(=O)[C@H](Cc1ccccc1)NC(=O)[C@@H](NC(=O)CNC(=O)[C@H](CCC(=O)O)NC(=O)C(C)(C)NC(=O)[C@@H](N)Cc1c[nH]cn1)[C@@H](C)O)[C@@H](C)O)C(C)C)C(=O)N[C@@H](CCC(=O)O)C(=O)N[C@@H](Cc1c[nH]cn1)C(=O)N[C@@H](CC(C)C)C(=O)N[C@H](C(N)=O)C(C)C [compound 76] (H-H[Aib]EGTFTSDVSYLK([AEEA-AEEA-γGlu-C20 diacid])EFAAQQRFLEHLV-NH2) | 122180 | 0.0794 nM | 0.08 | 20479 | 10000 nM |  |  |  |  |  |  |
| CC(C)C[C@H](NC(=O)[C@H](Cc1ccccc1)NC(=O)[C@H](CCCNC(=N)N)NC(=O)[C@H](CCC(N)=O)NC(=O)[C@H](CCC(N)=O)NC(=O)[C@H](C)NC(=O)[C@H](C)NC(=O)[C@H](CCC(=O)O)NC(=O)[C@H](CCC(=O)O)NC(=O)[C@H](CCCCNC(=O)COCCOCCNC(=O)COCCOCCNC(=O)CC[C@H](NC(=O)CCCCCCCCCCCCCCCCCCC(=O)O)C(=O)O)NC(=O)[C@H](CC(C)C)NC(=O)[C@@H](NC(=O)[C@H](CO)NC(=O)[C@@H](NC(=O)[C@H](CC(=O)O)NC(=O)[C@H](CO)NC(=O)[C@@H](NC(=O)[C@H](Cc1ccccc1)NC(=O)[C@@H](NC(=O)CNC(=O)[C@H](CCC(=O)O)NC(=O)C(C)(C)NC(=O)[C@@H](N)Cc1c[nH]cn1)[C@@H](C)O)[C@@H](C)O)C(C)C)C(C)C)C(=O)N[C@@H](CCC(=O)O)C(=O)N[C@@H](Cc1c[nH]cn1)C(=O)N[C@@H](CC(C)C)C(=O)N[C@H](C(N)=O)C(C)C [compound 90] (H-H[Aib]EGTFTSDVSVLK([AEEA-AEEA-γGlu-C20 diacid])EEAAQQRFLEHLV-NH2) |  |  | 0.09 | 5668 |  | 0.0316 nM | 51322 | 1580 nM |  |  |  |
| CC[C@H](C)[C@H](NC(=O)C(C)(C)NC(=O)[C@@H](N)Cc1c[nH]cn1)C(=O)NCC(=O)N[C@H](C(=O)N[C@@H](Cc1ccccc1)C(=O)N[C@H](C(=O)N[C@@H](CO)C(=O)N[C@@H](CC(=O)O)C(=O)N[C@H](C(=O)N[C@@H](CO)C(=O)N[C@@H](Cc1ccc(O)cc1)C(=O)N[C@@H](CC(C)C)C(=O)N[C@@H](CCCCNC(=O)COCCOCCNC(=O)COCCOCCNC(=O)CC[C@H](NC(=O)CCCCCCCCCCCCCCCCCCC(=O)O)C(=O)O)C(=O)N[C@@H](CCC(=O)O)C(=O)N[C@@H](CCC(=O)O)C(=O)N[C@@H](C)C(=O)NC(C)(C)C(=O)N[C@@H](CC(C)C)C(=O)N[C@@H](CCC(N)=O)C(=O)N[C@@H](CCCNC(=N)N)C(=O)N[C@@H](Cc1ccccc1)C(=O)N[C@@H](CC(C)C)C(=O)N[C@@H](CCC(=O)O)C(=O)N[C@@H](Cc1c[nH]cn1)C(=O)N[C@@H](CC(C)C)C(=O)N[C@H](C(N)=O)C(C)C)C(C)C)[C@@H](C)O)[C@@H](C)O [compound 175] (H-H[Aib]IGTFTSDVSYLK([AEEA-AEEA-γGlu-C20 diacid])EEA[Aib]LQRFLEHLV-NH2) |  |  | 0.08 | 3296 |  | 0.0316 nM | 247885 | 7940 nM |  |  |  |
| CC(C)C[C@H](NC(=O)[C@H](Cc1ccccc1)NC(=O)[C@H](CCCNC(=N)N)NC(=O)[C@H](CCC(N)=O)NC(=O)[C@H](CCC(N)=O)NC(=O)[C@H](C)NC(=O)[C@H](C)NC(=O)[C@H](CCC(=O)O)NC(=O)[C@H](CCC(=O)O)NC(=O)[C@H](CCCCNC(=O)COCCOCCNC(=O)COCCOCCNC(=O)CC[C@H](NC(=O)CCCCCCCCCCCCCCCCCCC(=O)O)C(=O)O)NC(=O)[C@H](CC(C)C)NC(=O)[C@H](CCC(=O)O)NC(=O)[C@H](CO)NC(=O)[C@@H](NC(=O)[C@H](CC(=O)O)NC(=O)[C@H](CO)NC(=O)[C@@H](NC(=O)[C@H](Cc1ccccc1)NC(=O)[C@@H](NC(=O)CNC(=O)[C@H](CCC(=O)O)NC(=O)C(C)(C)NC(=O)[C@@H](N)Cc1c[nH]cn1)[C@@H](C)O)[C@@H](C)O)C(C)C)C(=O)N[C@@H](CCC(=O)O)C(=O)N[C@@H](Cc1c[nH]cn1)C(=O)N[C@@H](CC(C)C)C(=O)N[C@H](C(N)=O)C(C)C [compound 14] (H-H[Aib]EGTFTSDVSELK([AEEA-AEEA-γGlu-C20 diacid])EEAAQQRFLEHLV-NH2) | 9917 | 0.02 nM | 0.08 | 10247 | 200 nM |  |  |  |  |  |  |
| CC[C@H](C)[C@H](NC(=O)[C@H](Cc1ccccc1)NC(=O)[C@H](CCCNC(=N)N)NC(=O)[C@H](CCC(N)=O)NC(=O)[C@H](CC(C)C)NC(=O)[C@H](C)NC(=O)[C@H](C)NC(=O)CNC(=O)[C@H](CCC(=O)O)NC(=O)[C@H](CC(C)C)NC(=O)[C@H](CC(C)C)NC(=O)[C@H](CCC(=O)O)NC(=O)[C@H](CO)NC(=O)[C@H](Cc1c[nH]c2ccccc12)NC(=O)[C@H](CC(=O)O)NC(=O)[C@H](CO)NC(=O)[C@@H](NC(=O)[C@H](Cc1ccccc1)NC(=O)[C@@H](NC(=O)CNC(=O)[C@H](CCC(=O)O)NC(=O)C(C)(C)NC(=O)[C@@H](N)Cc1c[nH]cn1)[C@@H](C)O)[C@@H](C)O)C(=O)N[C@@H](CCC(N)=O)C(=O)N[C@@H](Cc1c[nH]c2ccccc12)C(=O)N[C@@H](CC(C)C)C(=O)N[C@H](C(N)=O)C(C)C [compound 193] (H-H[Aib]EGTFTSDWSELLEGAALQRFIQWLV-NH2) |  |  | 0.13 | 26948 |  |  |  |  | 0.0251 nM | 558 | 12.6 nM |
| CC[C@H](C)[C@H](NC(=O)[C@H](Cc1ccccc1)NC(=O)[C@H](CCCNC(=N)N)NC(=O)[C@H](CCC(N)=O)NC(=O)[C@H](CC(C)C)NC(=O)[C@H](C)NC(=O)[C@H](C)NC(=O)CNC(=O)[C@H](CCC(=O)O)NC(=O)[C@H](CC(C)C)NC(=O)[C@H](CC(C)C)NC(=O)[C@H](Cc1c[nH]c2ccccc12)NC(=O)[C@H](CO)NC(=O)[C@@H](NC(=O)[C@H](CC(=O)O)NC(=O)[C@H](CO)NC(=O)[C@@H](NC(=O)[C@H](Cc1ccccc1)NC(=O)[C@@H](NC(=O)CNC(=O)[C@H](CCC(=O)O)NC(=O)C(C)(C)NC(=O)[C@@H](N)Cc1c[nH]cn1)[C@@H](C)O)[C@@H](C)O)C(C)C)C(=O)N[C@@H](CCC(N)=O)C(=O)N[C@@H](Cc1c[nH]c2ccccc12)C(=O)N[C@@H](CC(C)C)C(=O)N[C@H](C(N)=O)C(C)C [compound 183] (H-H[Aib]EGTFTSDVSWLLEGAALQRFIQWLV-NH2) |  |  | 0.67 | 172171 |  | 0.0501 nM | 3127 | 158 nM |  |  |  |
| CC[C@H](C)[C@H](NC(=O)[C@H](Cc1ccccc1)NC(=O)[C@H](CCCNC(=N)N)NC(=O)[C@H](CCC(N)=O)NC(=O)[C@H](CC(C)C)NC(=O)[C@H](C)NC(=O)[C@H](C)NC(=O)CNC(=O)[C@H](CCC(=O)O)NC(=O)[C@H](CC(C)C)NC(=O)[C@H](CC(C)C)NC(=O)[C@H](Cc1ccc(O)cc1)NC(=O)[C@H](CO)NC(=O)[C@@H](NC(=O)[C@H](CC(=O)O)NC(=O)[C@H](CO)NC(=O)[C@@H](NC(=O)[C@H](Cc1ccccc1)NC(=O)[C@@H](NC(=O)CNC(=O)[C@H](CCC(=O)O)NC(=O)C(C)(C)NC(=O)[C@@H](N)Cc1c[nH]cn1)[C@@H](C)O)[C@@H](C)O)C(C)C)C(=O)N[C@@H](CCC(N)=O)C(=O)N[C@@H](Cc1c[nH]c2ccccc12)C(=O)N[C@@H](CC(C)C)C(=O)N[C@H](C(N)=O)C(C)C [compound 181] (H-H[Aib]EGTFTSDVSYLLEGAALQRFIQWLV-NH2) |  |  | 0.69 | 257400 |  | 0.0501 nM | 4280 | 200 nM |  |  |  |
